From PubChem BioAssay (NCI)
≈ marks a conversion by molar mass, not a printed value. Where “and” joins values, the source holds several entries; their conditions need not be identical. Equal values may be shown once.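 Each compound was tested at five concentrations against cells in 96-well plates for 48 hours. At the GI50, growth is halved. TGI denotes the concentration required for complete inhibition of growth.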

Assays:
Experiment in all cases: NCI tumour cell line growth inhibition, 48 h
[1] = system: MOLT-4 leukemia
[2] = system: HL-60(TB) leukemia
[3] = system: PC-3 prostate
[4] = system: MDA-MB-435
[5] = system: HS 578T breast
[6] = system: SNB-78 CNS
[7] = system: RXF-631 renal
[8] = system: DLD-1 colon
[9] = system: DMS 273 small cell lung
[10] = system: M19-MEL melanoma
[11] = system: COLO 205 colon
[12] = system: T-47D breast
[13] = system: MDA-N

Row | Compound | GI50 [1] | TGI [1] | GI50 [2] | TGI [2] | GI50 [3] [µM] | TGI [3] [µM] | GI50 [4] | TGI [4] [µM] | GI50 [5] | TGI [5] [µM] | TGI [6] | TGI [7] | TGI [8] | TGI [9] | TGI [10] | TGI [11] [µM] | TGI [12] [µM] | TGI [13] [µM] | GI50 [12] [µg/mL] | GI50 [11] [µg/mL]
1 | COC(=O)C(C)NP(=O)(OCc1cccc(Cn2cnc3c(N)ncnc32)c1)Oc1ccccc1 (centres undefined) | 38.3 µM | > 100 µM | 46.8 µM | > 100 µM | > 100 | > 100 | > 100 µM | > 100 | 32.8 µM | > 100 | – | – | – | – | – | – | – | – | – | –
2 | C/C=C(/CCC1NCCc2c1[nH]c1ccccc21)[Si](C)(C)C (centres undefined) | – | – | – | – | – | – | – | – | – | – | > 100 µM and 27 µM | > 100 µM and 22.9 µM | > 100 µM and 21.6 µM | > 100 µM and 13.5 µM | > 100 µM and 10.1 µM | 3.92 | – | – | – | –
3 | O=c1c(-c2ccccc2)c(SCCCN2CCCCC2)n(-c2ccccc2)c(=S)n1-c1ccccc1 | – | 47 µM | – | 38.6 µM | – | 39.4 | – | 34.5 | – | > 100 | – | – | – | – | – | 36.8 | – | – | – | –
4 | O=c1[nH]c2ccccc2c2oc3ccccc3c12 | – | > 100 µM | – | – | – | > 100 | – | > 100 | – | > 100 | – | – | – | – | – | > 100 | > 100 | > 100 | – | –
5 | COC(=O)C1=C(O)C(C(=O)OC)[C@@]2(O)[C@@H](C(=O)OC)[C@H](C)C[C@@H]1[C@@H]2C(=O)OC (some centres undefined) | – | > 100 µM | – | 73.8 µM | – | – | – | 32.1 | – | 54.1 | – | – | – | – | – | – | > 100 | 31.4 | – | –
6 | NCCCCNOCCCN | – | > 100 µM | – | – | – | > 100 | – | > 100 | – | > 100 | – | – | – | – | – | > 100 | > 100 | > 100 | – | –
7 | CC(C)(CCCCC(C)(C)NC1=NCCO1)NC1=NCCO1 | – | > 10 µM | – | > 10 µM | – | > 10 | – | > 10 | – | > 10 | – | – | – | – | – | > 10 | > 10 | > 10 | – | –
8 | CC(C)(C)OC(=O)CC(NC(=O)OCc1ccccc1)NC(=O)OC(C)(C)C (centres undefined) | 23.5 µg/mL | 55.6 µg/mL | 20.8 µg/mL | 50.7 µg/mL | – | – | 87.9 µg/mL | – | 85.4 µg/mL | – | – | – | – | – | – | – | – | – | 26 (≈ 65.9 µM) | 50.6 (≈ 128 µM)
9 | C=CCN1C(=O)NC(=O)/C(=C/c2c3ccccc3cc3ccccc23)C1=O | – | 48.9 µM | – | – | – | – | – | – | – | – | > 100 µM | – | 44.7 µM | 43.4 µM | > 100 µM | 35.3 | – | – | – | –
